According to the supplement of paper PMC10307832:

Tests used:
Experiment in all cases: relative viability (nuclei count vs DMSO), 5 days (fraction); higher = more cells survive
IPA-3 + AZD7762 = compound: C1=CC=C2C(=C1)C=CC(=C2SSC3=C(C=CC4=CC=CC=C43)O)O [IPA-3] + NC(=O)Nc1cc(-c2cccc(F)c2)sc1C(=O)N[C@H]1CCCNC1 [AZD7762] (partner 0.2 µM)
Outline: (§1)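 Nuclei were stained with Hoechst during a one-step fixation (final 0.05% Triton X-100, 1% formaldehyde, 1 ug/ml Hoechst) carried out 5 days after dosing, then counted on 4× images. The cells, lung cancer lines in 1536-well plates, had been dosed by pin tool the day after seeding with one drug alone or a fixed anchor-drug dose plus five library-drug doses (not always all listed) in √10 steps. Relative viability is the nuclei count in treated wells divided by that in vehicle wells, and each value is the median of duplicate plates.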

IPA-3 + Vorinostat = compound: C1=CC=C2C(=C1)C=CC(=C2SSC3=C(C=CC4=CC=CC=C43)O)O [IPA-3] + O=C(CCCCCCC(=O)Nc1ccccc1)NO [Vorinostat] (partner 1 µM)
Outline: as §1

IPA-3 + Olaparib = compound: C1=CC=C2C(=C1)C=CC(=C2SSC3=C(C=CC4=CC=CC=C43)O)O [IPA-3] + O=C(c1cc(Cc2n[nH]c(=O)c3ccccc23)ccc1F)N1CCN(C(=O)C2CC2)CC1 [Olaparib] (partner 8 µM)
Outline: as §1

Doramapimod + Vorinostat = compound: Cc1ccc(-n2nc(C(C)(C)C)cc2NC(=O)Nc2ccc(OCCN3CCOCC3)c3ccccc23)cc1 [Doramapimod] + O=C(CCCCCCC(=O)Nc1ccccc1)NO [Vorinostat] (partner 1 µM)
Outline: as §1

Cell Line | relative viability (IPA-3 + AZD7762; first compound 0.2 µM) | relative viability (IPA-3 + AZD7762; first compound 0.6325 µM) | relative viability (IPA-3 + AZD7762; first compound 2 µM) | relative viability (IPA-3 + AZD7762; first compound 6.325 µM) | relative viability (IPA-3 + AZD7762; first compound 20 µM) | relative viability (IPA-3 + Vorinostat; first compound 0.2 µM) | relative viability (IPA-3 + Vorinostat; first compound 0.6325 µM) | relative viability (IPA-3 + Vorinostat; first compound 2 µM) | relative viability (IPA-3 + Vorinostat; first compound 6.325 µM) | relative viability (IPA-3 + Vorinostat; first compound 20 µM) | relative viability (IPA-3 + Olaparib; first compound 0.2 µM) | relative viability (IPA-3 + Olaparib; first compound 0.6325 µM) | relative viability (IPA-3 + Olaparib; first compound 2 µM) | relative viability (IPA-3 + Olaparib; first compound 6.325 µM) | relative viability (IPA-3 + Olaparib; first compound 20 µM) | relative viability (Doramapimod + Vorinostat; first compound 0.02 µM) | relative viability (Doramapimod + Vorinostat; first compound 0.06325 µM) | relative viability (Doramapimod + Vorinostat; first compound 0.2 µM) | relative viability (Doramapimod + Vorinostat; first compound 0.6325 µM) | relative viability (Doramapimod + Vorinostat; first compound 2 µM)
NCI-H838 | 1.05 | 0.94 | 1 | 0.967 | 1.08 | 0.776 | 0.697 | 0.75 | 0.706 | 0.794 | 0.904 | 0.723 | 0.776 | 0.667 | 0.735 | 0.749 | 0.749 | 0.766 | 0.808 | 0.726
NCI-H1666 | 0.866 | 0.815 | 0.788 | 0.962 | 0.905 | 1.07 | 1.06 | 1.07 | 1.04 | 1.03 | 0.854 | 0.655 | 0.764 | 0.749 | 0.836 | 1.05 | 0.986 | 1.03 | 1.14 | 0.944
NCI-H1944 | 0.766 | 0.492 | 0.536 | 0.718 | 0.541 | 0.674 | 0.492 | 0.479 | 0.574 | 0.527 | 0.452 | 0.409 | 0.405 | 0.435 | 0.395 | 0.504 | 0.616 | 0.575 | 0.665 | 0.611
NCI-H1755 | 0.55 | 0.448 | 0.434 | 0.486 | 0.476 | 0.863 | 0.61 | 0.694 | 0.63 | 0.704 | 0.879 | 0.851 | 0.804 | 0.849 | 0.895 | 0.798 | 0.748 | 0.619 | 0.768 | 0.687
NCI-H23 | 0.207 | 0.274 | 0.261 | 0.32 | 0.363 | 0.735 | 0.616 | 0.595 | 0.611 | 0.501 | 0.196 | 0.277 | 0.379 | 0.323 | 0.187 | 0.633 | 0.563 | 0.554 | 0.656 | 0.473
ABC-1 | 0.888 | 0.766 | 0.737 | 0.992 | 0.965 | 1.2 | 1.31 | 1.11 | 1.12 | 1.13 | 0.827 | 0.78 | 0.582 | 0.658 | 0.89 | 1.25 | 1.29 | 1.21 | 0.865 | 1.15
201T | 0.641 | 0.584 | 0.724 | 0.699 | 0.828 | 1.04 | 0.931 | 1.01 | 0.926 | 1.13 | 0.833 | 0.845 | 0.833 | 0.83 | 0.885 | 0.994 | 1.03 | 1.06 | 0.672 | 1
NCI-H1734 | 0.637 | 0.508 | 0.624 | 0.571 | 0.496 | 0.922 | 0.761 | 0.799 | 0.726 | 0.638 | 0.701 | 0.586 | 0.577 | 0.587 | 0.513 | 0.705 | 0.739 | 0.665 | 0.94 | 0.621
NCI-H1355 | 0.807 | 0.764 | 0.73 | 0.827 | 0.719 | 0.69 | 0.655 | 0.595 | 0.617 | 0.657 | 0.764 | 0.779 | 0.836 | 0.675 | 0.709 | 0.621 | 0.577 | 0.64 | 0.704 | 0.566
NCI-H1915 | 0.77 | 0.713 | 0.693 | 0.68 | 0.694 | 0.581 | 0.497 | 0.505 | 0.492 | 0.533 | 0.28 | 0.237 | 0.269 | 0.246 | 0.255 | 0.52 | 0.571 | 0.551 | 0.563 | 0.442
BEN | 0.726 | 0.656 | 0.801 | 0.767 | 0.672 | 0.594 | 0.59 | 0.586 | 0.686 | 0.568 | 1.07 | 1.15 | 1.08 | 1.06 | 1.23 | 0.54 | 0.561 | 0.513 | 0.458 | 0.584
NCI-H3122 | 1.02 | 1.01 | 0.995 | 1.11 | 0.999 | 1.06 | 1.2 | 1.03 | 1.46 | 1.14 | 0.655 | 0.608 | 0.57 | 0.644 | 0.588 | 1.13 | 1.07 | 1.12 | 0.849 | 0.859
HOP-62 | 0.787 | 0.828 | 0.657 | 0.606 | 0.661 | 0.72 | 0.556 | 0.597 | 0.698 | 0.717 | 0.848 | 0.401 | 0.47 | 0.392 | 0.274 | 0.653 | 0.714 | 0.721 | 0.606 | 0.623
HCC-366 | 0.443 | 0.337 | 0.334 | 0.432 | 0.316 | 0.518 | 0.287 | 0.339 | 0.341 | 0.318 | 0.532 | 0.345 | 0.321 | 0.34 | 0.277 | 0.329 | 0.421 | 0.44 | 0.42 | 0.32
NCI-H2347 | 0.789 | 0.604 | 0.777 | 0.738 | 0.904 | 0.768 | 0.601 | 0.634 | 0.506 | 0.638 | 0.568 | 0.486 | 0.565 | 0.592 | 0.612 | 0.652 | 0.555 | 0.569 | 0.644 | 0.538
SW 900 | 0.823 | 0.64 | 0.631 | 0.605 | 0.786 | 0.609 | 0.531 | 0.641 | 0.654 | 0.481 | 0.684 | 0.683 | 0.811 | 0.832 | 1.03 | 0.571 | 0.514 | 0.546 | 0.584 | 0.436
